Laboratory results as given in patent US10421760B2, “Pyrrolo[2,3-d]pyrimidine compound or salt thereof” (TAIHO PHARMACEUTICAL CO., LTD., priority 2015, dated 2019).

Assays:
[1] = molecular target: purified recombinant human JAK1 protein (Homo sapiens (Human), UniProt P23458); assay: JAK1 kinase-inhibiting activity (mobility shift, LabChip EZ Reader II); type: biochemical; settings: ATP 75 μM, 25° C., 120 minutes
Protocol: 1) Measurement of JAK1 Kinase-Inhibiting Activity
The activity of the compound of the present invention to inhibit the activity of JAK1 kinase was measured.
(§1) Among materials for the measurement of this inhibiting activity, a substrate peptide and a kinase protein were acquired as follows. As such a substrate peptide, a substrate peptide for QSS Assist JAK1-MSA assay kit (Carna Biosciences, Inc.) was purchased. As such a kinase protein, a purified recombinant human JAK1 protein (Carna Biosciences, Inc.) was purchased.
The method for measuring the inhibiting activity is as follows. First, the compounds of the present invention were each dissolved in dimethyl sulfoxide (DMSO), and a serial dilution was then prepared using DMSO. Subsequently, a serial dilution solution of the compound (the final concentration of DMSO upon a kinase reaction: 5.0%) or DMSO (final concentration: 5.0%) was mixed with a solution comprising the substrate peptide (final concentration: 1 μM), magnesium chloride (final concentration: 5 mM) and ATP (final concentration: 75 μM) in a buffer for kinase reaction (20 mM HEPES (pH 7.5), 2 mM dithiothreitol and 0.01% Triton X-100). Thereafter, a JAK1 protein was further added to the mixed solution, and the obtained mixture was then incubated at 25° C. for 120 minutes to carry out a kinase reaction. To the reaction solution, EDTA was added to a final concentration of 30 mM, so as to terminate the reaction. Finally, using LabChip EZ Reader II (Perkin Elmer Corp.), an unphosphorylated substrate peptide (S) and a phosphorylated peptide (P) were subjected to microchannel capillary electrophoresis, so that the two peptides were separated from each other and were then detected. The amount of a phosphorylation reaction was obtained based on the heights of the peaks of S and P, and the concentration of the compound capable of inhibiting 50% of the phosphorylation reaction was defined as an IC50 value (nM).

human PBMC = assay: IL-2-dependent growth of human peripheral blood mononuclear cells (CellTiter-Glo); type: cell-based; settings: 48 h, IL-2 2 ng/mL stimulation, 2 days
Protocol: The activity of the compound of the present invention to inhibit the IL-2-dependent growth reaction of human PBMC, which is caused by JAK3, was measured (Arthritis Rheum. 2010; 62(8): 2283-93).
Using a medium comprising 10 μg/mL PHA-M (Sigma) (which is RPMI-1640 (Sigma) comprising 10% human serum type AB (MP Biomedicals)), human PBMC (C.T.L.) (cell density: 1×10^6 cells/mL) was cultured at 37° C. in a culture vessel comprising 5% carbon dioxide for 3 days. Thereafter, the culture was washed with RPMI-1640 four times, and a medium (RPMI-1640 comprising 10% human serum type AB) was then added to the resultant culture to prepare a cell suspension. The cells (1×10^4 cells per well) and the serially diluted compound of the present invention were added to each well of a 96-well U-bottom microplate, and the thus obtained mixture was then cultured at 37° C. in a culture vessel comprising 5% carbon dioxide for 30 minutes. After completion of the culture, recombinant human IL-2 (Peprotech) was added to the culture to a final concentration of 2 ng/mL, and the obtained mixture was then stirred at 37° C. in a culture vessel comprising 5% carbon dioxide for 2 days (1×10^4 cells/100 μl/each well). After completion of the culture, the resultant was left at a room temperature for 30 minutes, and 100 μl of CellTiter-Glo Luminescent Cell Viability Assay (Promega) was then added to the resultant, followed by stirring it. Thereafter, the reaction mixture was left for 10 minutes, and the amount of a luminescence derived from living cells in each well was then measured using a microplate reader (TECAN). The inhibition rate of the present compound to the cell growth caused by IL-2 stimulation was calculated, and the concentration of the compound capable of inhibiting 50% of the cell growth was defined as an IC50 value (nM).

[2] = molecular target: purified recombinant human JAK2 protein (Homo sapiens (Human), UniProt O60674); assay: JAK2 kinase-inhibiting activity (mobility shift, LabChip EZ Reader II); type: biochemical; settings: ATP 10 μM, 25° C., 80 minutes
Sequence of purified recombinant human JAK2 protein (O60674 whole entry): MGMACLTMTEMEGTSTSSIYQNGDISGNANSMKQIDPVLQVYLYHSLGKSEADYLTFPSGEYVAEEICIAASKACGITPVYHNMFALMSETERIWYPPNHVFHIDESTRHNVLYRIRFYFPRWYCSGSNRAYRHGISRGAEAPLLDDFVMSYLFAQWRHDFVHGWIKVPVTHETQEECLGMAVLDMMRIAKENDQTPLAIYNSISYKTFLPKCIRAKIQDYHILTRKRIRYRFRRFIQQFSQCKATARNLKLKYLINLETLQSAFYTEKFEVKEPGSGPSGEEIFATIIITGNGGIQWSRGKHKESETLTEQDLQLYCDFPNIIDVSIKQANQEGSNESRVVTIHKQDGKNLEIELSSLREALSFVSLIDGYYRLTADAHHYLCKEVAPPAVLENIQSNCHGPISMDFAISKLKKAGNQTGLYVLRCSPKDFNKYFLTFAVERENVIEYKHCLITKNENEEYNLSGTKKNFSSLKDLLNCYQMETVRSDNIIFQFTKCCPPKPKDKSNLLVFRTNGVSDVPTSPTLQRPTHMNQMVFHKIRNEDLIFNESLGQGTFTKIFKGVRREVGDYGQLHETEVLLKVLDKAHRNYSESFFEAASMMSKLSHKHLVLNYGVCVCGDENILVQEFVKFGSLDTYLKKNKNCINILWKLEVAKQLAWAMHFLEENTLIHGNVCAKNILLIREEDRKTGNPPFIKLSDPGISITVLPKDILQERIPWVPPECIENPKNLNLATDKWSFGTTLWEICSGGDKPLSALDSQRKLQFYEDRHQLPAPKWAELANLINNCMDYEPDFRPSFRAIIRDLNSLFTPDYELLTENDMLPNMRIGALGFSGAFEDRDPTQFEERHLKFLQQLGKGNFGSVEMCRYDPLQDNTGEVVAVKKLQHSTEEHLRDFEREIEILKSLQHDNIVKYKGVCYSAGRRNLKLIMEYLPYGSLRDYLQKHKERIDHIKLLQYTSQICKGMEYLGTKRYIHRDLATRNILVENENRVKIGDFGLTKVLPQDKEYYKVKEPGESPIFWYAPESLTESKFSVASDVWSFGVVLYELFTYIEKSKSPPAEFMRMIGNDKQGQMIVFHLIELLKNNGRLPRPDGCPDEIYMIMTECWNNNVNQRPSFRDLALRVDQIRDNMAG
Protocol: 2) Measurement of JAK2 Kinase-Inhibiting Activity
The activity of the compound of the present invention to inhibit the activity of JAK2 kinase was measured.
as §1, with “FL-Peptide 22 (Perkin Elmer Corp.)” for “a substrate peptide for QSS Assist JAK1-MSA assay kit (Carna Biosciences, Inc.)”, “JAK2” for “JAK1”
(§2) The method for measuring the inhibiting activity is as follows. First, a serial dilution of the compound of the present invention was prepared by the same method as that described in the above section regarding JAK1. This serial dilution solution (the final concentration of DMSO upon a kinase reaction: 5.0%) or DMSO (final concentration: 5.0%) was mixed with a solution comprising the substrate peptide (final concentration: 1 μM), magnesium chloride (final concentration: 10 mM) and ATP (final concentration: 10 μM) in a buffer for kinase reaction (15 mM Tris (pH 7.5), 2 mM dithiothreitol and 0.01% Tween 20). Thereafter, a JAK2 protein was further added to the mixed solution, and the obtained mixture was then incubated at 25° C. for 80 minutes to carry out a kinase reaction. To the reaction solution, EDTA was added to a final concentration of 30 mM, so as to terminate the reaction. After termination of the reaction, the measurement and the data analysis were carried out by the same methods as those described in the above section regarding JAK1.

[3] = molecular target: purified recombinant human JAK3 protein (Homo sapiens (Human), UniProt P52333); assay: JAK3 kinase-inhibiting activity (mobility shift, LabChip EZ Reader II); type: biochemical; settings: ATP 5 μM, 25° C., 80 minutes
Sequence of purified recombinant human JAK3 protein (P52333 whole entry): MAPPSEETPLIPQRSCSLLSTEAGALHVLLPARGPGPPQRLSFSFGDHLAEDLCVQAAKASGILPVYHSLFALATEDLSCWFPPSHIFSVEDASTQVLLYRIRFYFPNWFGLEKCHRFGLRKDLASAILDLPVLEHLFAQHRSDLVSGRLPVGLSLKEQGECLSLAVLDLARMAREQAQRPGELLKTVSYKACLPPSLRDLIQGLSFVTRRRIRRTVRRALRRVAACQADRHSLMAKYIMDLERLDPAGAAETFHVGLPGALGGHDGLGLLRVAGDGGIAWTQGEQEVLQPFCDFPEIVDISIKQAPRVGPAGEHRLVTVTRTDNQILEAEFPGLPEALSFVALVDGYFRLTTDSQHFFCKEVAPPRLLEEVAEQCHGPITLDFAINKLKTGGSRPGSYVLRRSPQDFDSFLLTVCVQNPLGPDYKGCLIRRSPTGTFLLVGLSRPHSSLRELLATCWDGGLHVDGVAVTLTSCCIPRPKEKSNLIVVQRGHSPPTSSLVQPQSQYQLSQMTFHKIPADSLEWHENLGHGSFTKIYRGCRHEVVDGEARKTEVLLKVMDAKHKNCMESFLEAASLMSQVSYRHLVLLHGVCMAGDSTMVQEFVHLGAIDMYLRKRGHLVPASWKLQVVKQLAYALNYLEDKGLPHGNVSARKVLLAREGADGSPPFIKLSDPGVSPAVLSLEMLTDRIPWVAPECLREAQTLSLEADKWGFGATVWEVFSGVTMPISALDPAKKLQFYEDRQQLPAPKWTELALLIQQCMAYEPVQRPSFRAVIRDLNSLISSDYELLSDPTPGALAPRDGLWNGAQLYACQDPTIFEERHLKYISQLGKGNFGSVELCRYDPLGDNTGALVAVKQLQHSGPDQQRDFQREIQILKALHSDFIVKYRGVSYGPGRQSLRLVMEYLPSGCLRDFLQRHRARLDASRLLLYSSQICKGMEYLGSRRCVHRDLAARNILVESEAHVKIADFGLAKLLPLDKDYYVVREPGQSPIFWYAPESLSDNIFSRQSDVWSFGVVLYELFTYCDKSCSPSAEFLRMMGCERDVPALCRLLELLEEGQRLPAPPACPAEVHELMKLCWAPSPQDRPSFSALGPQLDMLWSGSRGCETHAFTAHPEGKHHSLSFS
Protocol: 3) Measurement of JAK3 Kinase-Inhibiting Activity
The activity of the compound of the present invention to inhibit the activity of JAK3 kinase was measured.
as §1, with “JAK3-MSA” for “JAK1-MSA”, “JAK3” for “JAK1”
as §2, with “5” for “10”, “(20” for “(15”, “HEPES” for “Tris”, “Triton X-100).” for “Tween 20).”, “JAK3” for “JAK2”

[4] = tested on: IL-2-induced IFN-γ production; assay: Mouse IL-2-induced IFN-γ production test; type: in vivo; settings: oral 1 mg/kg and 3 mg/kg, serum 3 hours after IL-2, BALB/c mice
Protocol: The inhibitory activity of the compound of the present invention and the compounds of comparative examples on mouse IL-2-induced IFN-γ production caused by JAK3 was measured (Arthritis Rheum. 2010; 62 (8): 2283-93, Inflammation Research 2015; 64 (1): 41-51).
Seven-week-old male BALB/c mice (Charles River Japan) were divided into five groups (6 mice per group), namely, a vehicle group, a Compound 7 (1 mpk) group, a Compound 7 (3 mpk) group, a Comparative Example 12 (1 mpk) group, and a Comparative Example 12 (3 mpk) group. Compound 7 and the compound of Comparative Example 12 were each administered to the 1 mpk group and the 3 mpk group via oral administration at doses of 1 mg/kg and 3 mg/kg, respectively. […] Three hours after administration of IL-2, blood was collected from all of the five groups, and the IFN-γ concentration in the serum was measured using BD In Vivo Capture Assay for Mouse IFN-γ (BD Biosciences). The relative amount of IFN-γ generated by IL-2 stimulation was calculated according to the following calculation formula: Relative amount of IFN-γ=(IFN-γ concentration of each group)×100/(IFN-γ concentration of vehicle group), and the results are shown in FIG. 1 (mean value±standard error: regarding vs Vehicle, Dunnett test, *: p<0.05, ***: p<0.001; regarding vs Comparative Example 12 (3 mpk), Student t-test, ##: p<0.01).

Sequence of purified recombinant human JAK1 protein (P23458 whole entry): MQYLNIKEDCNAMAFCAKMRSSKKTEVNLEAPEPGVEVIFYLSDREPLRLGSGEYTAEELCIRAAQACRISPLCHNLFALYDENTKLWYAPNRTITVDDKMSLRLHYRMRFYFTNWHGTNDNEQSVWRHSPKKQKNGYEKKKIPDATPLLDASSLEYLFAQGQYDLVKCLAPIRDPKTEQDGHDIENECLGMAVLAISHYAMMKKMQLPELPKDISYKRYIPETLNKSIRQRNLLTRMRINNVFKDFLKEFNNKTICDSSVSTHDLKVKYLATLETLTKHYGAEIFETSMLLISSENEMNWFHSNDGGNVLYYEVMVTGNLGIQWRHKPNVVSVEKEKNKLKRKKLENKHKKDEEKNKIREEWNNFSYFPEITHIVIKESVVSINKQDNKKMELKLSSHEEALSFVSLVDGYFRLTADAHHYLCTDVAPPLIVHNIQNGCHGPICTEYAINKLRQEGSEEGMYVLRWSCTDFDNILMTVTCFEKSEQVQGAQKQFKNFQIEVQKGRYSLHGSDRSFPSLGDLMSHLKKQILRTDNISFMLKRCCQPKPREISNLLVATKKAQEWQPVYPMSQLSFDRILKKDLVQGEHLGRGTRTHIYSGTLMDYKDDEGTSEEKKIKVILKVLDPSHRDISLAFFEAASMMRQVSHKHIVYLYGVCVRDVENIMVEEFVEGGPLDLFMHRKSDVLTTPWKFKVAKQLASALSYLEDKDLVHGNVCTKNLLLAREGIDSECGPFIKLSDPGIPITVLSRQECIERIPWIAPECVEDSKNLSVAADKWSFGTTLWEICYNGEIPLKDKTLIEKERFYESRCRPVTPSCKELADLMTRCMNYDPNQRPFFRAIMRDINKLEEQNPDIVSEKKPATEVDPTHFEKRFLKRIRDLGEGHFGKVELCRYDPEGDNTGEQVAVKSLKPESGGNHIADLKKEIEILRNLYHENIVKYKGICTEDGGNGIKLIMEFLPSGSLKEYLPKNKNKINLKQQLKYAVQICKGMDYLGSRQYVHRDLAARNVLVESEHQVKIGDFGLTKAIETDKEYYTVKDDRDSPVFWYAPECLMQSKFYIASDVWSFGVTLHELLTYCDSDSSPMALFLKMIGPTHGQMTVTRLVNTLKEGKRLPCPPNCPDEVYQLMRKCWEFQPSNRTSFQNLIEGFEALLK

SMILES | IC50 [1] [nM] | IC50 (human PBMC) [nM] | IC50 [2] [nM] | IC50 [3] [nM] | suppression of IFN-γ production in vivo [4]
C=CC(=O)N[C@H]1CCC[C@@H](c2ncnc3[nH]cc(-c4ccco4)c23)C1 [Comparative Example 11(a), N-((1S,3R)-3-(5-(Furan-2-yl)-7H-pyrrolo[2,3-d]pyrimidin-4-yl)cyclohexyl)acrylamide, reference compound] | > 10000 | > 3000 | 2440 | 21 | –
C=CC(=O)N[C@H]1CCC[C@H](c2ncnc3[nH]cc(-c4ccco4)c23)C1 [Comparative Example 11(b), N-((1S,3S)-3-(5-(Furan-2-yl)-7H-pyrrolo[2,3-d]pyrimidin-4-yl)cyclohexyl)acrylamide, reference compound] | > 10000 | 1940 | 880 | 19 | –
C=CC(=O)N[C@H]1CCC=C(c2ncnc3[nH]cc(-c4ccco4)c23)C1 [Compound 7, (S)—N-(3-(5-(Furan-2-yl)-7H-pyrrolo[2,3-d]pyrimidin-4-yl)cyclohex-3-en-1-yl)acrylamide] | 440 | 18 | 330 | < 0.3 | –
C=CC(=O)NC1CCC=C(c2ncnc3[nH]cc(-c4cccs4)c23)C1 (stereo not shown) [Compound 2, N-(3-(5-(Thiophen-2-yl)-7H-pyrrolo[2,3-d]pyrimidin-4-yl)cyclohex-3-en-1-yl)acrylamide] | 900 | 110 | 480 | < 0.3 | –
C=CC(=O)NC1CCC=C(c2ncnc3[nH]cc(-c4ccco4)c23)C1 (stereo not shown) [Compound 5, N-(3-(5-(Furan-2-yl)-7H-pyrrolo[2,3-d]pyrimidin-4-yl)cyclohex-3-en-1-yl)acrylamide] | 720 | 38 | 430 | < 0.3 | –
C=CC(=O)Nc1cccc(-c2ncnc3[nH]cc(-c4ccccc4)c23)c1 [Comparative Example 12, N-(3-(5-Phenyl-7H-pyrrolo[2,3-d]pyrimidin-4-yl)phenyl)acrylamide, reference compound] | > 1000 | 546 | > 1000 | 0.09 | did not exhibit such a significant IFN-γ production-suppressing action
